The record followed here is US10874641B2, “Methods of treating acute kidney injury” (Mitobridge, Inc., priority 2016, dated 2020).

In this assay the test system is ischemia/reperfusion induced kidney injury. Kind of assay: rat model of ischemia/reperfusion induced kidney injury. In kind it is in vivo. The following applies: Sprague Dawley rats after ischemic renal injury (45 min bilateral renal pedicle occlusion), veliparib 25 mg/kg BID PO. An excerpt:
Acute kidney injury (AKI) is a clinical condition characterized by a rapid decline in kidney function and is often associated with high morbidity and mortality. The precise etiology of ischemia/reperfusion (I/R)-induced AKI is yet not fully understood and is thought to involve multiple factors. The prevention of acute kidney injury and its progression represents a great challenge particularly in renal transplanted patients. Therefore, animal models of renal ischemia/reperfusion (I/R) are important to understand pathophysiology and potential treatment strategies for AKI. The present study evaluated the efficacy of a test compound, namely veliparib (shown below),
[drawing 8] in a rat model of ischemia/reperfusion induced kidney injury.
Species: Rattus norvegicus
3. Experimental Plan • i. All animals were numbered and kept in acclimatization for a period of 5-7 days, with 2 days acclimatization on metabolic cages before, initiation of the experiment. • ii. Animals were randomized into different treatment groups based on their body weight and assigned a permanent number. • iii. Body weight measurements were made once at randomization, also daily just prior to compound dosing and prior to termination. All body weights were recorded. • iv. Treatment with test compound(s) varied based on dose group (see table) that follows different dosing paradigms. The time of each dose administration was recorded. • 1. The dosing schedule for groups 1 and 2 was as follows: a 5 mL/kg BID dose with vehicle starting Day −1 through Day 2 with the final dose on Day 3 occurring 2 hours prior to takedown. • 2. The dosing schedule for group 3 with veliparib was 25 mg/kg BID starting on Day −1. […] After 45 min, the clips were removed, reperfusion was monitored (change in kidney color) for 1-2 min and the surgical sites were sutured. […] Postsurgical care and recovery: Animals were monitored until recovery from anesthesia and returned to their metabolic cage. […] For the 6 hour collection, urine volume was measured and recorded (to the nearest 1.0 mL) and samples were clarified by centrifugation (3000 rpm for 10 minutes). […]

“Also recorded” adds a separate entry of the source.

As to `C[C@]1(c2nc3c(C(N)=O)cccc3[nH]2)CCCN1` [veliparib], under “FIG. 2A/2B”, the “induced increases in blood urea nitrogen (BUN)” value is listed as “attenuates” and the “induced increases in plasma creatinine levels” value was “attenuates”. Moreover, the “fractional excretion of sodium (a measurement of tubular injury)” value (FIG. 3) is “improves; also recorded: attenuates”.
